Results: article PMC9900472 (ACS chemical biology, 2022)

Legend:
E. coli iPGM = E. coli iPGM (Escherichia coli, UniProt P37689); assay: luminescent coupled-enzyme ATP-quantifying iPGM assay, E. coli iPGM; format: biochemical
H. pylori iPGM = molecular target: T1, H. pylori iPGM (Helicobacter pylori, UniProt B5Z7X6); assay: biochemical
T1 sequence (B5Z7X6 1-491): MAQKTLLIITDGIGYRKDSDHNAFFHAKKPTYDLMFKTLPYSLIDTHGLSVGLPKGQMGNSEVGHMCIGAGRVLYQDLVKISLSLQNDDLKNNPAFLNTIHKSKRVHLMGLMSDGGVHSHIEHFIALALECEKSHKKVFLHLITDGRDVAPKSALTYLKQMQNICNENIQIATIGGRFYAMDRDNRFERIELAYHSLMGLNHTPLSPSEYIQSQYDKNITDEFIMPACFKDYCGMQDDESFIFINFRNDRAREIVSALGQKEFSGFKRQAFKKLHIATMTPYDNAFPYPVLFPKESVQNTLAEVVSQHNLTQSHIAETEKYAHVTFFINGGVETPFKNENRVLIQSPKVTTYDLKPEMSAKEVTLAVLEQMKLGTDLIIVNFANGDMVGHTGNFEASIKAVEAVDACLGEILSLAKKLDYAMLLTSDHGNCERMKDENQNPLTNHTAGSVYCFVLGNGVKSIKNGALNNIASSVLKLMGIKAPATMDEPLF

W. bancrofti iPGM = molecular target: T2, W. bancrofti iPGM (Wuchereria bancrofti, UniProt B1P0R4); assay: biochemical
T2 sequence (B1P0R4 1-515): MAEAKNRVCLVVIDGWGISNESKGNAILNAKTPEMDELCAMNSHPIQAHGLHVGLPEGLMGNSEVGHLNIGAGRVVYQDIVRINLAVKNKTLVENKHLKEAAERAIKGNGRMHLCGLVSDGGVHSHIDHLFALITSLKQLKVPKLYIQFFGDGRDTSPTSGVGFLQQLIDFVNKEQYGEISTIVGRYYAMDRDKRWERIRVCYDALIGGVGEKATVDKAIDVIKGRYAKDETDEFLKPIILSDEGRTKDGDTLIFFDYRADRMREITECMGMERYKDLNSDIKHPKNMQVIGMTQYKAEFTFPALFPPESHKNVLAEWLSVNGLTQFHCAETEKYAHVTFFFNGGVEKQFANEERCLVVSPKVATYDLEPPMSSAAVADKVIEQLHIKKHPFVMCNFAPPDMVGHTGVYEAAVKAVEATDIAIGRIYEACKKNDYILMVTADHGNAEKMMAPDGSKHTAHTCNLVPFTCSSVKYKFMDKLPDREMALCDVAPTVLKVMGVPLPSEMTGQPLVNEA

C. elegans iPGM = molecular target: T3, C. elegans iPGM (Caenorhabditis elegans, UniProt G5EFZ1); assay: luminescent coupled-enzyme ATP-quantifying iPGM assay, C. elegans iPGM; format: biochemical
T3 sequence (G5EFZ1 1-539): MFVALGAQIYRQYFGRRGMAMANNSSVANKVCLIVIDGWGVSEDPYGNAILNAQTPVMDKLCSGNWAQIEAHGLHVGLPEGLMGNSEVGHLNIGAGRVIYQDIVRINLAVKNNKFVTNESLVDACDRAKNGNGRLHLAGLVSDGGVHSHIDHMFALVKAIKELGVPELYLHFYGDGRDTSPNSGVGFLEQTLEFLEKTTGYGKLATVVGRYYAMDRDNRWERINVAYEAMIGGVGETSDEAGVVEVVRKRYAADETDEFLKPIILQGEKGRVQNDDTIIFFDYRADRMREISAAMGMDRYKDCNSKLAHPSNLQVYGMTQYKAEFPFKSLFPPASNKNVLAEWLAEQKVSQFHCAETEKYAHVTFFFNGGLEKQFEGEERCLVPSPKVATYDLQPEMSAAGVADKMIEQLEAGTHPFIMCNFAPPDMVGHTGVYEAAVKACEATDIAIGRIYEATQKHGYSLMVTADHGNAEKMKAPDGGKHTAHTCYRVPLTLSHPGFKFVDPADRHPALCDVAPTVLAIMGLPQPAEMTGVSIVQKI

B. malayi iPGM = B. malayi iPGM (Brugia malayi, UniProt Q4VWF8); assay: luminescent coupled-enzyme ATP-quantifying iPGM assay, B. malayi iPGM; format: biochemical
B. malayi iPGM, sequence (Q4VWF8 whole entry): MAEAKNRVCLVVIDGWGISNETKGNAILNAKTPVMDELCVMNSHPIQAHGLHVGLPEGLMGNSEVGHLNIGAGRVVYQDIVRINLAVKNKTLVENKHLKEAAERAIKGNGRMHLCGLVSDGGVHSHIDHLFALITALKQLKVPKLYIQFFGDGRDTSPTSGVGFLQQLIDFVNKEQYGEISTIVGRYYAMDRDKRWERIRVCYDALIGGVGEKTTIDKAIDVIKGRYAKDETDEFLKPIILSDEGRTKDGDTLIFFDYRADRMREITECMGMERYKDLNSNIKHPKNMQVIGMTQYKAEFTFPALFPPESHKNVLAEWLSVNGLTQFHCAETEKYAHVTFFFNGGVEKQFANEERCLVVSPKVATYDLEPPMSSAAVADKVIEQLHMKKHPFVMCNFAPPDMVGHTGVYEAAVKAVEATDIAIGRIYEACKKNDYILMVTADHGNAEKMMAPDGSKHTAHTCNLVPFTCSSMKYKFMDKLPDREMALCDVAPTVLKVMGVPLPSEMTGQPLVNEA

E. coli iPGM, sequence (P37689 whole entry): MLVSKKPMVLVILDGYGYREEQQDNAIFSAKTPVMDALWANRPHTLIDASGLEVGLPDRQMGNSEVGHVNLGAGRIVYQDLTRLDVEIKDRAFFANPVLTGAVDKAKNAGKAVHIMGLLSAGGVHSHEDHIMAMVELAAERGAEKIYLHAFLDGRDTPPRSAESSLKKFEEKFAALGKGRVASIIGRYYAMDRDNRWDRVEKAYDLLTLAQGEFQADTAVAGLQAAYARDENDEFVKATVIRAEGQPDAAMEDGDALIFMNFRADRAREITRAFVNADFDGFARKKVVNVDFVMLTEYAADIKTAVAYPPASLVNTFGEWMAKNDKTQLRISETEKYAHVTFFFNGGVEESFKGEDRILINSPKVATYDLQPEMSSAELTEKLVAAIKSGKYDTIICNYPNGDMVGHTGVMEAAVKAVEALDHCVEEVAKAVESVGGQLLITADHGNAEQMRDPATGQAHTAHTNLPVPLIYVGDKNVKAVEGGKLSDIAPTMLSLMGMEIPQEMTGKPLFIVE

CC(C)C[C@H](NC(=O)[C@H](Cc1ccc(O)cc1)NC(=O)[C@@H]1CSCC(=O)N[C@H](Cc2ccc(O)cc2)C(=O)N[C@@H](CC(=O)O)C(=O)N[C@@H](Cc2ccc(O)cc2)C(=O)N2CCC[C@H]2C(=O)NCC(=O)N[C@@H](CC(=O)O)C(=O)N[C@@H](Cc2ccc(O)cc2)C(=O)N1)C(=O)N[C@@H](Cc1ccc(O)cc1)C(=O)NCC(=O)N[C@H](C(=O)N[C@@H](CS)C(N)=O)[C@@H](C)O [Ce-2]
AC50 (E. coli iPGM): 316 nM
AC50 (H. pylori iPGM): 3.63 µM
AC50 (W. bancrofti iPGM): 2.34 nM
AC50 (C. elegans iPGM): 2.45 nM
AC50 (B. malayi iPGM): 2.69 nM
